From patent US20120184035A1, “Methods and Compositions For Reprogramming Cells” (priority 2011, published 2012)
“Also recorded” adds a separate entry of the source.

System: 293T cells
Experiment: RT-PCR of muscle specific gene expression in permeabilized 293T cells incubated with cell extracts, with or without transcription modifying agents or conditioned media
Format: cell-based, human
Source text: A hallmark of a particular cell type is its gene expression profile. Reverse-Transcription of the expressed RNA in a cell, combined with Polymerase Chain Reaction aided amplification of the signal (RT-PCR), was used to detect the expression levels of these genes and provide a method to detect cell reprogramming. This example illustrates RT-PCR assays for detection of muscle specific genes in C2C12 cells (FIG. 5). Total RNA prepared from C2C12 cells at different stages of differentiation (t=0, t=3, t=6) or from 293T cells or HeLa cells were used in an RT-PCR reaction with primers specific to the muscle specific genes, MyoD or Myogenin. […] RT-PCR conditions for the detection of late muscle specific genes Troponin T and Myosin Heavy Chain, and for the hES cell marker Oct-4, were also established. Due to its relatively high sensitivity, gene expression analysis using RT-PCR was used to detect expression of marker genes in permeablized and potentially reprogrammed recipient cells.
Cell extracts were introduced into a recipient cell by reversible permeabilization of recipient cells using the pore-forming, calcium sensitive bacterial toxin Streptolysin O (SLO) and exposure of these cells to reprogramming cell extracts. Limited and transient exposure of cells to low doses of SLO in the absence of calcium ions allows the formation of membrane pores large enough to allow the passive diffusion of proteins up to the size of 100 kilodaltons, but not large enough for organelles. Subsequently, reversal of this membrane permeabilization by adding calcium ions allows the membrane to repair itself and the resealed cells are viable and can proliferate. During the permeabilization process, the recipient cell was incubated with whole cell extracts or nuclear or cytoplasmic extracts of a desired cell type (“donor cell”), and (in some experiments) in the presence of permeabilization/reprogramming promoting agents such as an energy generating system and cytoskeletal disruptors. The whole cell extract is believed to provide regulatory factors that are taken up by the permeabilizing recipient cell. The plasma membrane was then resealed, the cells were allowed to recover and cultured further, in conditions conducive to desired reprogramming. […] The resultant changes in gene expression profiles may arise over time, and may be further promoted by subsequent rounds of treatment with donor cell extract.
Cells were treated with reprogramming extracts (or control 293T “self” extracts) as above.
We next turned to testing the effects of these treatments on reprogramming potential by evaluating reprogramming of 293T or primary NHDF-N cells incubated with cell extracts from the C2C12 muscle differentiating system by gene expression analysis (RT-PCR). In the case of examining the effects of transcription modifying agents, several variations of treatment plans were envisioned. The agents can be applied before or after permeabilizing the cells (or both) and for different durations of time, as long as the cells survive the treatment. Plausibly, different treatment designs could potentially lead to different effects.

[1] = agents applied after priming/permeabilization of C2C12 extract exposed 293T cells, 5-aza 10 uM, SB 10 mM, TSA 10 nM
[2] = agents for 48 hours before permeabilization, 293T self extract

Row | Structure (SMILES) | MyoD expression in cells primed with control self extract (agent applied post priming, 293T self extract) | level of MyoD RNA detection [1] | MyoD expression in cells incubated with control self extract [2] | level of MyoD RNA detection (agents for 48 hours before permeabilization, C2C12 extract incubated 293T cells, relative to C2C12 extract alone) | Troponin T transcript at later timepoints (later timepoints, modifier treated and C2C12 extract incubated 293T cells) | level of MyoD RNA detection (agents applied after priming/permeabilization of C2C12 extract exposed 293T cells, 5-aza 10 uM, SB 10 mM, TSA 10 nM, listed as SB) | level of MyoD RNA detection (agents for 48 hours before permeabilization, C2C12 extract incubated 293T cells, relative to C2C12 extract alone, listed as SB) | level of MyoD RNA detection (agents for 48 hours before permeabilization, C2C12 extract incubated 293T cells, relative to C2C12 extract alone, listed as TSA)
1 | Nc1ncn([C@@H]2O[C@H](CO)[C@@H](O)[C@H]2O)c(=O)n1 [5-azacytidine] | low level of expression of MyoD | did not appear to enhance the level of MyoD expression | low level of expression of MyoD | appeared to enhance the level detection of this RNA; also recorded: enhance the level detection of this RNA slightly | more abundant and more specific | – | – | –
2 | CCCC(=O)[O-].[Na+] [Sodium Butyrate] | – | small increase in expression | low level of expression of MyoD | – | – | did not appear to enhance the level of MyoD expression | appeared to enhance the level detection of this RNA; also recorded: enhance the level detection of this RNA slightly | –
3 | CC(/C=C/C(=O)NO)=C\[C@@H](C)C(=O)c1ccc(N(C)C)cc1 [Trichostatin A] | – | did not appear to enhance the level of MyoD expression | – | – | – | – | – | appeared to enhance the level detection of this RNA; also recorded: enhance the level detection of this RNA slightly
